Experimental data published in PubChem BioAssay (NCI).
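Compound exposure: 48 hours, 5 concentrations, 96-well plates. GI50 = concentration required for 50% inhibition of growth. At the TGI there is no net growth.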

What follows are compounds tested on MDA-MB-468 breast (assay: growth of human tumour cells (NCI), 48 h).

SMILES | GI50 | TGI
COCC[C@H]1CCC/C=C/[C@@H]2C[C@H](O)C[C@H]2[C@H](O)/C=C/C(=O)O1 | 0.0245 µM | 0.0714 µM
Nc1nc(Nc2cccnc2)sc1C(=O)c1ccccc1F | 1.37 µM | 4.04 µM
O=C(Nc1n[nH]c2cc(-c3ccccc3)ccc12)C1CC1 | 4 µM | > 25 µM
COc1cc2ncnc(-n3ncc4cc(NC(=O)Nc5ccccc5)ccc43)c2cc1OC | 1.18 µM | 3.35 µM
COc1cc(OC)c(C(=O)/C=C/c2cccc(C(F)(F)F)c2)c(OC)c1 | 0.755 µM | 2.01 µM
CN1CCN(CCCNc2nc3ccc(Oc4ccc(NC(=O)Nc5cc(C(F)(F)F)ccc5F)cc4)cc3[nH]2)CC1 | 3.33 µM | 6.57 µM
C=C(C)[C@@H]1CC[C@]2(CO)CC[C@]3(C)[C@H](CC[C@@H]4[C@@]5(C)C=C(C#N)C(=O)C(C)(C)[C@@H]5CC[C@]43C)[C@@H]12 | 1.3 µM | 3.85 µM
CCCC(CCC)NCC(O)c1cc(-c2ccc(C(F)(F)F)cc2)nc(C(F)(F)F)c1 (stereo unspecified) | 1.58 µM | 2.98 µM
COc1c(C(=O)/C=C/c2ccccc2)c(O)cc2occc12 | 6.77 µM | 21.4 µM
COc1ccc(-c2[nH]c3ccc(OC)cc3c2/C=C(\C#N)S(=O)(=O)c2ccccc2)cc1 | 1.33 µM | 44 µM
COc1ccc(C(=O)c2cc(C)c(OC)c(C)c2)cc1OC(=O)CCl | 0.0894 µM | 75.2 µM
CC1(C)C(=O)/C(=C\c2cccnc2)C[C@]2(C)[C@H]3CC[C@@H]4[C@H]5[C@H](C(=O)/C=C/c6cccnc6)CC[C@]5(C(=O)O)CC[C@@]4(C)[C@]3(C)CC[C@@H]12 | 2.14 µM | 5.7 µM
CN1CCN(Cc2ccc(NC(=O)c3cncc(C#Cc4cnn5cccnc45)c3)cc2C(F)(F)F)CC1 | 8.35 µM | 22.8 µM
COc1ccc(/C=C/c2c(C(=O)/C=C/c3ccccc3)c(C)nc3ccccc23)cc1 | 1.78 µM | 3.48 µM
Cc1ccc(NC(=O)c2cccc(C(C)(C)C#N)c2)cc1Nc1ccc2ncn(C)c(=O)c2c1 | 15.8 µM | > 100 µM
CCc1nc2cc(F)c(/C=C/C(=O)NO)cc2c(=O)n1CCc1ccccc1 | 0.217 µM | 0.761 µM
O=C1/C(=C(/c2ccccc2)N2CCOCC2)Cc2ccccc21 | 0.501 µM | 1.9 µM
CCNCCNc1cc(-c2ccc(C(F)(F)F)cc2)c(C#N)c2nc3ccccc3n12 | 0.688 µM | 2.14 µM
Cc1cc2ncnn2cc1Nc1ncc2c(n1)n(C1CCOCC1)c(=O)n2C | 4.37 µM | 44.8 µM

SMILES | GI50 | TGI
CCCCC(CC)COC(=O)C[N+](C)(C)CCOC(c1ccccc1)c1ccccc1 (stereo unspecified) | 1.46 µM | 3.12 µM
NS(=O)(=O)c1ccc(-c2ccc3c(NC(=O)C4CC4)n[nH]c3c2)cc1 | > 21.6 µM | > 25 µM
CC1=CC(=O)C=CC1=O | 1.57 µM | 3.21 µM
Cc1cc(C(=O)Nc2ccc3cc(CN4CCOCC4)ccc3n2)c(C)n1-c1ccccc1 | 0.171 µM | 7.11 µM
C=C(C)[C@H]1Cc2c(ccc3c2O[C@@H]2COc4cc(OC)c(OC)cc4[C@@H]2C3=O)O1 | 0.0816 µM | > 100 µM
C/C(=N\Nc1ccc(Cl)cn1)c1ccc2ccccc2n1 | 2.88 µM | > 100 µM
COc1ccc(C(=O)c2cc(C)c(OC)c(C)c2)c(OC)c1O | 0.489 µM | > 100 µM
C=C1C(=O)O[C@H]2[C@H]1CC/C(COC(=O)NCCCCNC(=O)OC/C1=C/CC[C@@]3(C)O[C@H]3[C@H]3OC(=O)C(=C)[C@@H]3CC1)=C\CC[C@@]1(C)O[C@@H]21 | 0.426 µM | 2 µM
COc1ccc2[nH]c3c4[nH]c5ccc(OC)cc5c4c4c(c3c2c1)C(=O)NC4=O | > 25 µM | > 25 µM
Cc1cc(C)c(NC(=O)c2sc3nc4c(cc3c2N)C(=O)CCC4)c(C)c1 | 0.651 µM | 4.39 µM
NC(=O)c1cc(Cl)ccc1NC(=O)/C=C/c1ccccc1 | 1.1 µM | 11.5 µM
COc1ccccc1CNCCCN1C(=O)c2ccc3c4c(ccc(c24)C1=O)C(=O)N(CCCNCCNCCCN)C3=O | 0.456 µM | 2.22 µM
COc1ccc(C(=O)c2cc(OC)c(OC)c(OC)c2)cc1/C=C/C(=O)c1ccc(F)cc1 | 4.63 µM | 27.1 µM
COC(=O)Nc1nc2ccc(C3(c4ccc(F)cc4)OCCO3)cc2[nH]1 | 0.159 µM | 1.19 µM
CCOC(=O)C1CCN(S(=O)(=O)/N=C2/NC(=O)NC2=C(Cl)Cl)CC1 | 0.387 µM | 2.08 µM
O=S(=O)(c1ccc(NC(=S)NC23CC4CC(CC(C4)C2)C3)cc1)N1CCCCC1 | 2.27 µM | 6.84 µM
COc1ccc(-c2nc3ccccn3c2/C=C/C(=O)c2cc(OC)c(OC)c(OC)c2)cc1OC | 2.28 µM | 5.71 µM
CC/C=C\C[C@H](O)C/C=C1/C(=O)C=C[C@@H]1C/C=C\CCCC(=O)OC | 1.68 µM | 3.77 µM
CC(C)c1ccc(-c2cc(-c3cn[nH]c3-c3ccccn3)ccn2)cc1 | 10.5 µM | 24.7 µM
